In patent US12214012B2, “Combined preparations for the treatment of cancer” (IMMUTEP S.A.S., priority 2013, dated 2025):
Structures can show the parent of a compound that is named as a salt.

B1: IMP321: recombinant soluble human LAG-3Ig fusion protein, 200-kDa dimer: extracellular domain of hLAG-3 fused to human IgG1 Fc (protein)
chain: LQPGAEVPVVWAQEGAPAQLPCSPTIPLQDLSLLRRAGVTWQHQPDSGPPAAAPGHPLAPGPHPAAPSSWGPRPRRYTVLSVGPGGLRSGRLPLQPRVQLDERGRQRGDFSLWLRPARRADAGEYRAAVHLRDRALSCRLRLRLGQASMTASPPGSLRASDWVILNCSFSRPDRPASVHWFRNRGQGRVPVRESPHHHLAESFLFLPQVSPMDSGPWGCILTYRDGFNVSIMYNLTVLGLEPPTPLTVYAGAGSRVGLPCRLPAGVGTRSFLTAKWTPPGGGPDLLVTGDNGDFTLRLEDVSQAQAGTYTCHIHLQEQQLNATVTLAIITVTPKSFGSPGSLGKLLCEVTPVSGQERFVWSSLDTPSQRSFSGPWLEAQEAQLLSQPWQCQLYQGERLLGAAVYFTELSSPG
modifications: left off: small tags and cut ends; a dimerising Fc or GST
notes: recombinant soluble human LAG-3Ig fusion protein, 200-kDa dimer: extracellular domain of hLAG-3 fused to human IgG1 Fc

Legend:
[1] = test system: colorectal adenocarcinoma cell line CT26; assay: Murine syngeneic skin tumour model, CT26 (Example 1); assay type: in vivo; conditions: CT26 s.c. in BALB/c mice; IMP321 50 μg s.c. D11-D28; Topotecan 2.5 mg/kg i.p. D10, D13, D17; FIG. 1
Method: A murine syngeneic skin tumour model was established using the colorectal adenocarcinoma cell line CT26.
One quarter of the minimum tumorigenic dose (MTD) of tumour cells (0.5×10^5 cells) was implanted by subcutaneous (s.c.) injection in the right flank of four groups of BALB/c mice (5 weeks old) at Day 0. The mice were injected with phosphate buffered saline (PBS) (Group 1 mice), the LAG-3 derivative IMP321 (Group 2 mice), IMP321 and Topotecan (Group 3 mice), or Topotecan alone (Group 4 mice) according to the following schedule: • Group 1 (8 mice): negative control: PBS s.c. injection at D11, D14, D18, D21, D25 and D28; • Group 2 (7 mice): IMP321 s.c. injection (50 μg, 1.9 mg/ml) at D11, D14, D18, D21, D25 and D28; • Group 3 (8 mice): IMP321 s.c. injection (50 μg, 1.9 mg/ml) at D11, D14, D18, D21, D25 and D28, plus Topotecan i.p. injection (45 μg, 2.5 mg/kg) at D10, D13 and D17; • Group 4 (8 mice): Topotecan i.p. injection (45 μg, 2.5 mg/kg) at D10, D13 and D17.
Tumour growth was monitored twice a week by measuring two perpendicular tumour diameters using calipers. Tumour size means the cross-sectional area in mm^2.

lymphoma cell line EL4 [2] = assay: Murine syngeneic skin tumour model, EL4, carboplatin and oxaliplatin (Example 3); assay type: in vivo; conditions: EL4 s.c. in C57Bl/6 mice; IMP321 50 μg s.c. D7-D25; Carboplatin 16 mg/kg i.p. D6, D10, D13, D17; Oxaliplatin 3 mg/kg i.p. D6, D10; FIG. 3A/3B
Method: (§1) A murine syngeneic skin tumour model was established using the lymphoma cell line EL4.
The minimum tumorigenic dose (MTD) of tumour cells (5×10^5 cells) was implanted by s.c. injection in the right flank of C57Bl/6 mice (5 weeks old) at Day 0. The mice were injected with phosphate buffered saline (PBS) (Group 1 mice), IMP321 (Group 2 mice), IMP321 and Carboplatin (Group 3 mice), Carboplatin alone (Group 4 mice), IMP321 and Oxaliplatin (Group 5 mice), or Oxaliplatin alone (Group 6 mice) according to the following schedule: • Group 1 (10 mice): negative control: PBS s.c. injection at D7, D11, D14, D18, D21 and D25; • Group 2 (10 mice): IMP321 s.c. injection (50 μg, 1.9 mg/m) at D7, D11, D14, D18, D21 and D25; • Group 3 (9 mice): IMP321 s.c. injection (50 μg, 1.9 mg/ml) at D7, D11, D14, D18, D21 and D25, plus Carboplatin i.p. injection (288 μg, 16 mg/kg) at D6, D10, D13 and D17; • Group 4 (10 mice): Carboplatin i.p. injection (288 μg, 16 mg/kg) at D6, D10, D13 and D17; • Group 5 (10 mice): IMP321 s.c. injection (50 μg, 1.9 mg/m) at D7, D11, D14, D18, D21 and D25, plus Oxaliplatin i.p. injection (54 μg, 3 mg/kg) at D6 and D10; • Group 6 (10 mice): Oxaliplatin i.p. injection (54 μg, 3 mg/kg) at D6 and D10.
Tumour growth was monitored twice a week by measuring two perpendicular tumor diameters using calipers. […] Tumour size means the cross-sectional area in mm^2.

[3] = test system: Mouse colon 38 (C38) tumor fragments; assay: C38 colon adenocarcinoma tumor model (Example 4); conditions: C38 fragments s.c. in C57BL/6 mice; oxaliplatin 5 mg/kg IV Q7Dx4; IMP321 20 μg SC Q7Dx4, day after oxaliplatin; FIG. 4A
Method: The effect of combined treatment with the LAG-3 derivative IMP321 (also referred to as hLAG-3Ig) and oxaliplatin in the C38 colon adenocarcinoma tumor model was evaluated. In this model, tumor fragments are surgically implanted subcutaneously.
Mouse colon 38 (C38) tumor fragments were obtained frozen from the Division of Cancer Treatment, Tumor Repository, NCI (Frederick, MD, USA). The C38 fragments were stored frozen in DMSO/SVF/RPMI 1640 medium (10/10/80) in liquid nitrogen until use. The fragments were thawed at 37° C. for 5 min, rinsed twice in RPMI 1640 medium before subcutaneous (SC) implantation in mice. The C38 tumors were serially transplanted in C57Bl/6 mice.
Small C38 tumor fragments (20-30 mg) were subcutaneously implanted in the right flank of 12 C57BL/6 mice. When tumor sizes reached 500-1000 mm^3, tumors were surgically excised and small C38 tumor fragments (20-30 mg) were subcutaneously implanted in the right flank of recipient C57BL/6 mice.
Treatment started when the tumors reached a mean volume of 200-300 mm^3. […]

lymphoma cell line EL4 [4] = assay: Murine syngeneic skin tumour model, EL4 (Example 2); assay type: in vivo; conditions: EL4 s.c. in C57Bl/6 mice; IMP321 50 μg s.c. D7-D24; Carboplatin 16 mg/kg i.p. D6, D10, D13, D17; FIG. 2
Method: as §1
The minimum tumorigenic dose (MTD) of tumour cells (5×10^5 cells) was implanted by s.c. injection in the right flank of C57Bl/6 mice (5 weeks old) at Day 0. The mice were injected with phosphate buffered saline (PBS) (Group 1 mice), IMP321 (Group 2 mice), IMP321 and Carboplatin (Group 3 mice), or Carboplatin alone (Group 4 mice) according to the following schedule: • Group 1 (8 mice): negative control: PBS s.c. injection at D7, D11, D14, D19, D21 and D24; • Group 2 (8 mice): IMP321 s.c. injection (50 μg, 3.96 mg/ml) at D7, D11, D14, D19, D21 and D24; • Group 3 (8 mice): IMP321 s.c. injection (50 μg, 3.96 mg/m) at D7, D11, D14, D19, D21 and D24, plus Carboplatin i.p. injection (288 μg, 16 mg/kg) at D6, D10, D13 and D17; • Group 4 (8 mice): Carboplatin i.p. injection (288 μg, 16 mg/kg) at D6, D10, D13 and D17.
Tumour growth was monitored twice a week by measuring two perpendicular tumor diameters using calipers. Tumour size means the cross-sectional area in mm^2.

Molecule | effect on tumour growth (tumour size, cross-sectional area) [1] | effect on tumour growth (tumour size, cross-sectional area) (lymphoma cell line EL4 [2]) | effect on delaying tumor growth [3] | effect on tumour growth (tumour size, cross-sectional area) (lymphoma cell line EL4 [4])
CC[C@@]1(O)C(=O)OCc2c1cc1n(c2=O)Cc2cc3c(CN(C)C)c(O)ccc3nc2-1 [topotecan, (S)-10-[(dimethylamino)methy]-4-ethyl-4,9-dihydroxy-1H-pyrano[3′,4′:6,7]indolizino[1,2-b] quinoline-3,14(4H,12H)-dione monohydrochloride] | some effect on reducing tumor growth |  |  | 
O=C1[O][Pt]2([NH][C@@H]3CCCC[C@H]3[NH]2)[O]C1=O [Oxaliplatin, [(1R,2R)-cyclohexane-1,2-diamine](ethanedioato-O,O′)platinum(II)] |  | had an effect | a slight effect | 
[NH2][Pt]1([NH2])[O]C(=O)C2(CCC2)C(=O)[O]1 [carboplatin, cis-diammine(cyclobutane-1,1-dicarboxylate-O,O′)platinum(I)] |  | some effect |  | very little effect, if any
B1 | no effect on tumour growth | little, if any effect | no effect on delaying tumor growth | no effect on tumour growth
